Source: ChEMBL document CHEMBL5537115, “New broad-spectrum and potent antibacterial agents with dual-targeting mechanism: Promoting FtsZ polymerization and disrupting bacterial membranes” (Eur J Med Chem, 2024)
The source made the active and inactive calls. The rule behind the calls is not given here.

Tests used:
[1] = biological target: T1, Cell division protein FtsZ (Bacillus subtilis) (UniProt A5Z1V5); test: Induction of FtsZ polymerization in Bacillus subtilis preincubated for 10 mins followed by GTP addition measured upto 30 mins by absorbance based assay; conditions: dose 2.5-10 µg/ml, time 40.0 min
T1 sequence (whole entry): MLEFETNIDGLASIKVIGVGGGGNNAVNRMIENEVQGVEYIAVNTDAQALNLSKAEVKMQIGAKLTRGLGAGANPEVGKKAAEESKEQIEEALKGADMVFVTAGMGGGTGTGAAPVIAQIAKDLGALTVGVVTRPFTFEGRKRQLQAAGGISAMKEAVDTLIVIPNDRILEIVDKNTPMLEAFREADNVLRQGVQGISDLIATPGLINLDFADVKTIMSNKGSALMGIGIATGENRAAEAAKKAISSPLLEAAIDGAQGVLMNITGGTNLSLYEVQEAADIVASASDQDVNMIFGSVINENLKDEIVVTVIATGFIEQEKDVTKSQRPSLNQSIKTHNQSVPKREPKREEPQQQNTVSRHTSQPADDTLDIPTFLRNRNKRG

Staphylococcus aureus [2] = test: Antibacterial activity against Staphylococcus aureus clinical isolate incubated for 18 to 24 hrs; assay type: functional; conditions: time 18-24 hrs
Acinetobacter baumannii [3] = test: Antibacterial activity against Acinetobacter baumannii ATCC19606 assessed as bacterial growth inhibition incubated for 20 hrs by CLSI based broth microdilution method; assay type: functional
Escherichia coli [4] = test: Antibacterial activity against penicillin-susceptible Escherichia coli ATCC25922 assessed as bacterial growth inhibition incubated for 20 hrs by CLSI based broth microdilution method; assay type: functional
Staphylococcus aureus [5] = test: Antibacterial activity against penicillin-resistant Staphylococcus aureus ATCC31007 assessed as bacterial growth inhibition incubated for 20 hrs by CLSI based broth microdilution method; assay type: functional
Staphylococcus aureus [6] = test: Antibacterial activity against erythromycin-susceptible Staphylococcus aureus ATCC25923 incubated for 18 to 24 hrs; assay type: functional; conditions: time 18-24 hrs
Staphylococcus aureus [7] = test: Induction of morphological change in Staphylococcus aureus ATCC25923 assessed as loss of bacterial membrane integrity at 16 times MIC incubated for 2 hrs by TEM analysis; assay type: functional, organism-based
Staphylococcus aureus [8] = test: Antibacterial activity against methicillin-resistant Staphylococcus aureus ATCC43300 incubated for 18 to 20 hrs; assay type: functional; conditions: time 18-20 hrs
Staphylococcus aureus [9] = test: Induction of resistance development in Staphylococcus aureus ATCC25923 assessed as fold increase in MIC at 0.5 times MIC measured after 32 days by multi-passage resistance assay relative to control; assay type: functional; conditions: time 32.0 day
Escherichia coli [10] = test: Induction of membrane potential depolarization in Escherichia coli ATCC25922 measured after 20 mins by diSC35 dye based spectroscopy; assay type: functional, organism-based
Escherichia coli [11] = test: Disruption of outer membrane in Escherichia coli ATCC25922 measured after 10 mins by NPN dye based analysis; assay type: functional, organism-based; conditions: dose 4-16 µg/ml
Enterococcus faecium [12] = test: Antibacterial activity against vancomycin-resistant Enterococcus faecium ATCC51559 assessed as bacterial growth inhibition incubated for 20 hrs by CLSI based broth microdilution method; assay type: functional
[13] = tested on: Staphylococcus epidermidis; test: Antibacterial activity against penicillin-resistant Staphylococcus epidermidis clinical isolate assessed as bacterial growth inhibition incubated for 20 hrs by CLSI based broth microdilution method; assay type: functional
Escherichia coli [14] = test: Disruption of inner membrane in Escherichia coli ATCC25922 measured after 12 mins by PI staining based analysis; assay type: functional, organism-based
Staphylococcus aureus [15] = test: Antibacterial activity against Staphylococcus aureus clinical isolate assessed as bacterial growth inhibition incubated for 20 hrs by CLSI based broth microdilution method; assay type: functional
Staphylococcus aureus [16] = test: Disruption of inner membrane in Staphylococcus aureus ATCC25923 measured after 12 mins by PI staining based analysis; assay type: functional, organism-based
Staphylococcus aureus [17] = test: Induction of morphological change in Staphylococcus aureus ATCC25923 assessed as leakage of cell contents at 16 times MIC incubated for 2 hrs by TEM analysis; assay type: functional, organism-based
Bacillus subtilis [18] = test: Induction of morphological change in Bacillus subtilis ATCC9372 assessed as increase in cell length at 0.5 times MIC by phase contrast microscopy; assay type: functional, organism-based
Streptococcus pyogenes [19] = test: Antibacterial activity against erythromycin-susceptible Streptococcus pyogenes 1 assessed as bacterial growth inhibition incubated for 20 hrs by CLSI based broth microdilution method; assay type: functional
Klebsiella pneumoniae = test: Antibacterial activity against Klebsiella pneumoniae ATCC BAA-1902 assessed as bacterial growth inhibition incubated for 20 hrs by CLSI based broth microdilution method; assay type: functional
Bacillus subtilis [20] = test: Selectivity ratio of MBC for penicillin-susceptible Bacillus subtilis ATCC9372 to MIC for penicillin-susceptible Bacillus subtilis ATCC9372; assay type: functional
[21] = biological target: T1, Cell division protein FtsZ (Bacillus subtilis); test: Induction of FtsZ polymerization in Bacillus subtilis assessed as bundling of FtsZ protofilaments at 10 ug/ml preincubated for 15 mins followed by GTP addition measured after 10 mins by TEM analysis; conditions: dose 10.0 µg/ml, time 25.0 min
Staphylococcus aureus [22] = test: Disruption of inner membrane in Staphylococcus aureus ATCC25923 by PI staining based analysis; assay type: functional, organism-based; conditions: time 12.0 min, TDE = time-dependent effect
[23] = biological target: T1, Cell division protein FtsZ (Bacillus subtilis); test: Induction of FtsZ polymerization in Bacillus subtilis at 2.5 to 10 ug/ml preincubated with compound followed by GTP addition by absorbance based assay; conditions: dose 2.5-10 µg/ml, time 40.0 min, TDE = time-dependent effect
Staphylococcus aureus [24] = test: Antibacterial activity against Staphylococcus aureus ATCC25923 infected in Kunming mouse model assessed as bacterial growth reduction at 25 mg/kg, ip; assay type: functional, organism-based
Enterococcus faecalis [25] = test: Antibacterial activity against vancomycin-resistant Enterococcus faecalis ATCC51299 assessed as bacterial growth inhibition incubated for 20 hrs by CLSI based broth microdilution method; assay type: functional
Staphylococcus aureus [26] = test: Induction of membrane potential depolarization in Staphylococcus aureus ATCC25923 measured after 20 mins by diSC35 dye based spectroscopy; assay type: functional, organism-based
Bacillus subtilis [27] = test: Antibacterial activity against penicillin-susceptible Bacillus subtilis ATCC9372 assessed as bacterial growth inhibition incubated for 20 hrs by CLSI based broth microdilution method; assay type: functional
[28] = Hemolytic activity in mouse erythrocytes at 8 ug/ml incubated for 1 hr by absorbance based assay; assay type: toxicity, cell-based, Erythrocyte; conditions: at 8 µg/mL, read-out: Activity
Enterococcus faecalis [29] = test: Antibacterial activity against vancomycin-susceptible Enterococcus faecalis ATCC29212 assessed as bacterial growth inhibition incubated for 20 hrs by CLSI based broth microdilution method; assay type: functional
Staphylococcus aureus [30] = test: Inhibition of biofilm formation of Staphylococcus aureus ATCC25923 incubated for 20 hrs by crystal violet staining based analysis; assay type: functional, organism-based
Streptococcus pyogenes [31] = test: Antibacterial activity against erythromycin-resistant Streptococcus pyogenes 2 clinical isolate assessed as bacterial growth inhibition incubated for 20 hrs by CLSI based broth microdilution method; assay type: functional
[32] = Hemolytic activity in mouse erythrocytes at 16 ug/ml incubated for 1 hr by absorbance based assay; assay type: toxicity, cell-based, Erythrocyte; conditions: at 16 µg/mL, read-out: Activity
Bacillus pumilus = test: Antibacterial activity against penicillin-susceptible Bacillus pumilus CMCC63202 assessed as bacterial growth inhibition incubated for 20 hrs by CLSI based broth microdilution method; assay type: functional
Escherichia coli [33] = test: Disruption of inner membrane in Escherichia coli ATCC25922 by PI staining based analysis; assay type: functional, organism-based; conditions: time 12.0 min, TDE = time-dependent effect
Acinetobacter baumannii [34] = test: Antibacterial activity against Acinetobacter baumannii ATCC19606 incubated for 18 to 24 hrs; assay type: functional; conditions: time 18-24 hrs
Bacillus subtilis [35] = test: Antibacterial activity against penicillin-susceptible Bacillus subtilis ATCC9372 incubated for 18 to 24 hrs; assay type: functional; conditions: time 18-24 hrs
Acinetobacter baumannii [36] = test: Selectivity ratio of MBC for Acinetobacter baumannii ATCC19606 to MIC for Acinetobacter baumannii ATCC19606; assay type: functional
Enterococcus faecium [37] = test: Antibacterial activity against vancomycin-susceptible Enterococcus faecium ATCC19434 assessed as bacterial growth inhibition incubated for 20 hrs by CLSI based broth microdilution method; assay type: functional
Escherichia coli [38] = test: Antibacterial activity against wild-type Escherichia coli BW25113 assessed as bacterial growth inhibition incubated for 20 hrs by CLSI based broth microdilution method; assay type: functional
Staphylococcus aureus [39] = test: Antibacterial activity against erythromycin-susceptible Staphylococcus aureus ATCC25923 assessed as bacterial growth inhibition incubated for 20 hrs by CLSI based broth microdilution method; assay type: functional
Staphylococcus aureus [40] = test: Antibacterial activity against methicillin-resistant Staphylococcus aureus ATCC43300 assessed as bacterial growth inhibition incubated for 20 hrs by CLSI based broth microdilution method; assay type: functional
Staphylococcus aureus [41] = test: Selectivity ratio of MBC for Staphylococcus aureus clinical isolate to MIC for Staphylococcus aureus clinical isolate; assay type: functional
Staphylococcus aureus [42] = test: Selectivity ratio of MBC for methicillin-resistant Staphylococcus aureus ATCC43300 to MIC for methicillin-resistant Staphylococcus aureus ATCC43300; assay type: functional
Staphylococcus aureus [43] = test: Inhibition of biofilm formation of Staphylococcus aureus ATCC25923 at 0.5 ug/ml incubated for 20 hrs by crystal violet staining based analysis relative to control; assay type: functional
Staphylococcus aureus [44] = test: Selectivity ratio of MBC for erythromycin-susceptible Staphylococcus aureus ATCC25923 to MIC for erythromycin-susceptible Staphylococcus aureus ATCC25923; assay type: functional
Staphylococcus aureus [45] = test: Effect on proton gradient of cytoplasmic membrane in Staphylococcus aureus ATCC25923 at 1 ug/ml measured after 20 mins by diSC35 dye based analysis; assay type: functional, organism-based; conditions: Cytoplasm membrane, dose 1.0 µg/ml

For `Cc1ccccc1-c1c[n+](C)c(-c2ccc(C(C)(C)C)cc2)cc1/C=C/c1ccc(C(C)(C)C)cc1.[I-]`, the Activity [1] was “Dose-Dependent Effect”, the MBC (Staphylococcus aureus [2]) was 0.5 µg/mL and the MIC (Acinetobacter baumannii [3]) was 0.5 µg/mL. It also gave an MIC (Escherichia coli [4]) of 4 µg/mL, an MIC (Staphylococcus aureus [5]) of 1 µg/mL and an MBC (Staphylococcus aureus [6]) of 0.5 µg/mL. For the same compound, the Activity (Staphylococcus aureus [7]) was “Active”, the MBC (Staphylococcus aureus [8]) was 0.25 µg/mL and the fold change (FC) (Staphylococcus aureus [9]) was 2. For the same compound, the Activity (Escherichia coli [10]) was “Dose-Dependent Effect”, the Activity (Escherichia coli [11]) was “Dose-Dependent Effect” and the MIC (Enterococcus faecium [12]) was 0.5 µg/mL. For the same compound, the MIC [13] was 0.5 µg/mL, the Activity (Escherichia coli [14]) was “Dose-Dependent Effect” and the MIC (Staphylococcus aureus [15]) was 0.25 µg/mL. The Activity (Staphylococcus aureus [16]) was “Dose-Dependent Effect”, the Activity (Staphylococcus aureus [17]) was “Active” and the Activity (Bacillus subtilis [18]) was “Active”. For the same compound, the MIC (Streptococcus pyogenes [19]) was 2 µg/mL, the MIC (Klebsiella pneumoniae) was 4 µg/mL and the Ratio (Bacillus subtilis [20]) was 32. For the same compound, the Activity [21] was “Active”, the Activity (Staphylococcus aureus [22]) was “Tde” and the Activity [23] was “Tde”. The Activity (Staphylococcus aureus [24]) was “Active”, the MIC (Enterococcus faecalis [25]) was 0.25 µg/mL and the Activity (Staphylococcus aureus [26]) was “Dose-Dependent Effect”. For the same compound, the MIC (Bacillus subtilis [27]) was 0.125 µg/mL, the hemolysis at 1 h, 8 ug/ml [28] was 8.29% and the MIC (Enterococcus faecalis [29]) was 1 µg/mL. The inhibition (Staphylococcus aureus [30]) was “Dose-Dependent Effect”, the MIC (Streptococcus pyogenes [31]) was 2 µg/mL and the hemolysis at 1 h, 16 ug/ml [32] was 18.9%. The MIC (Bacillus pumilus) was 0.5 µg/mL, the Activity (Escherichia coli [33]) was “Tde” and the MBC (Acinetobacter baumannii [34]) was 2 µg/mL. The MBC (Bacillus subtilis [35]) was 4 µg/mL, the Ratio (Acinetobacter baumannii [36]) was 4 and the MIC (Enterococcus faecium [37]) was 0.125 µg/mL. It also gave an MIC (Escherichia coli [38]) of 2 µg/mL, an MIC (Staphylococcus aureus [39]) of 0.125 µg/mL and an MIC (Staphylococcus aureus [40]) of 0.25 µg/mL. It also gave a Ratio (Staphylococcus aureus [41]) of 2, a Ratio (Staphylococcus aureus [42]) of 1 and an inhibition at 0.5 µg/mL (Staphylococcus aureus [43]) of 28.8%. It also gave a Ratio (Staphylococcus aureus [44]) of 4.

For `C[n+]1ccc(/C=C/c2ccccc2)c(-c2ccccc2)c1`, the Activity (Staphylococcus aureus [45]) was “inactive”.
